Test results from ChEMBL document CHEMBL1201862, “PubChem BioAssay data set” (2004).
Active and inactive are the calls of the source.

How the values were obtained:
[1] = target: E3 ubiquitin-protein ligase Mdm2/Protein Mdm4 (Homo sapiens, UniProt O15151+Q00987); experiment: disruption of Mdm2/MdmX protein binding – luminescence detection, dose response (AID 504593); type: functional
[2] = HPDE-C7 pancreatic duct cell viability loss – fluorescence, HTS (AID 430); type: functional, cell-based; details: Homo sapiens
[3] = viability loss of HPDE-C7K cells – cell-based, fluorescence, HTS, primary screen (AID 431); type: functional; details: Homo sapiens
[4] = target: T1, Probable nicotinate-nucleotide adenylyltransferase (Staphylococcus aureus (strain N315), UniProt P65502); type: functional, Staphylococcus aureus subsp. aureus N315; details: read-out: IC50_Mean;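 as to IC50 Mean: confirmatory dose-response retesting of NadD inhibitor hits first found in an ultra-high-throughput screen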
T1 sequence (P65502 whole entry, the tested form may be a part): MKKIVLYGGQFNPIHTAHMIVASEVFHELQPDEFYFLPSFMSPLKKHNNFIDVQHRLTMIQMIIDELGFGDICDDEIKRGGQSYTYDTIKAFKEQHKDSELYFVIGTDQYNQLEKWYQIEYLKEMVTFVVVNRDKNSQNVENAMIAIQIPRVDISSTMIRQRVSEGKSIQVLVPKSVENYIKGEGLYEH

[5] = target: Envelope glycoprotein gp160 (Human immunodeficiency virus 1, UniProt Q6QLK5); experiment: cell-free HIV fusion peptide-binding blockers – biochemical, uHTS, fluorescence dequenching, […] (AID 1986)
Chain of Envelope glycoprotein gp160 (Q6QLK5 whole entry, the tested form may be a part): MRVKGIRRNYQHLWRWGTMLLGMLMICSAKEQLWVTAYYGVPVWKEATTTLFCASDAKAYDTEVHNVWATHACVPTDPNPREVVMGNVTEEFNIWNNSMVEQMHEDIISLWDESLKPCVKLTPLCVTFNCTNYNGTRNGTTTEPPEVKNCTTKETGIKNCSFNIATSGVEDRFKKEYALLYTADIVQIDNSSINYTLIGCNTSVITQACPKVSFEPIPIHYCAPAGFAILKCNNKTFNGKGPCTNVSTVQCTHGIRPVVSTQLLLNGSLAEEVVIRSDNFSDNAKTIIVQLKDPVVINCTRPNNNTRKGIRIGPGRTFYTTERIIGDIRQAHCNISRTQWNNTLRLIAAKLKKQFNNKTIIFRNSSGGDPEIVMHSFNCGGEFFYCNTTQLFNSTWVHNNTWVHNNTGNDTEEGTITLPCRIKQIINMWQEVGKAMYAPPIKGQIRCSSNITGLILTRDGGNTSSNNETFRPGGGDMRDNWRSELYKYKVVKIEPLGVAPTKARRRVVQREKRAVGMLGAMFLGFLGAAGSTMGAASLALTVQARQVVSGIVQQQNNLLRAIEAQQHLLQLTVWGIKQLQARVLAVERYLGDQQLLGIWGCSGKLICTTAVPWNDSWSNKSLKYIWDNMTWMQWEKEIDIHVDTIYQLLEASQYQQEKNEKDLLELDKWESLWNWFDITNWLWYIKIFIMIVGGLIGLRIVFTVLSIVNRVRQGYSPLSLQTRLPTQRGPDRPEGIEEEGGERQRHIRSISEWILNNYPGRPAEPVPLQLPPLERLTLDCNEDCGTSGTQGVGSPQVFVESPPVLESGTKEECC

Aminopeptidase N = target: T2, Aminopeptidase N (Plasmodium falciparum FcB1/Columbia, UniProt O96935); experiment: malaria alanyl aminopeptidase activity blockers – biochemical, fluorogenic H-Leu-NHMec substrate, 1536-well (AID 1445); design: species or system Plasmodium falciparum 3D7, 3D7
T2 sequence (O96935 whole entry): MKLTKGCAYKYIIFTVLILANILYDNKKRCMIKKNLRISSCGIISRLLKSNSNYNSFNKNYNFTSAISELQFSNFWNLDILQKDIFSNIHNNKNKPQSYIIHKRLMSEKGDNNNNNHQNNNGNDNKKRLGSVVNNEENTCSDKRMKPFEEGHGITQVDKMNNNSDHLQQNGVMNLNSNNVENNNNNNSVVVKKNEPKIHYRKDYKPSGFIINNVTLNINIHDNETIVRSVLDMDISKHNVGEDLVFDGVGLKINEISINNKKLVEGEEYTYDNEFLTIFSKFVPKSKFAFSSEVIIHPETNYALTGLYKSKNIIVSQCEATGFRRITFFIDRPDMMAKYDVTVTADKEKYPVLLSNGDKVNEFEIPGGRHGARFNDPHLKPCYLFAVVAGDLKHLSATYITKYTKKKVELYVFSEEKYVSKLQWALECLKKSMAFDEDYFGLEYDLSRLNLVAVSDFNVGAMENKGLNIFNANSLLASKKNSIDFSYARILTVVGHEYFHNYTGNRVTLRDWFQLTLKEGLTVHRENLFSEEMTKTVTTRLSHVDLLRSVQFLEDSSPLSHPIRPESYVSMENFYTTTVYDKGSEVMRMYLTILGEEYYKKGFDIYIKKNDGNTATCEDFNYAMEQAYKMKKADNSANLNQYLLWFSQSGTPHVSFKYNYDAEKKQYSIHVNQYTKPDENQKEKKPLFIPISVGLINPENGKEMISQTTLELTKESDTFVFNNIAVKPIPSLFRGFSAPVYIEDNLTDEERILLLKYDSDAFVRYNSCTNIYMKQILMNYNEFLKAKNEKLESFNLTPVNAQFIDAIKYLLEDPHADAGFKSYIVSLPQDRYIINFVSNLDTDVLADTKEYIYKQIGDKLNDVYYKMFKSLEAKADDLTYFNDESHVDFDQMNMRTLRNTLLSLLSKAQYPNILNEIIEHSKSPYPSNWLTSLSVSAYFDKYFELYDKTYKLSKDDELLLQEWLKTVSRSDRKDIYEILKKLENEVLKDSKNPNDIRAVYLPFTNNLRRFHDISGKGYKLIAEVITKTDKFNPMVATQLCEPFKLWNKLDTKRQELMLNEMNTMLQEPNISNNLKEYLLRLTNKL

Genome polyprotein = Genome polyprotein (dengue virus type 2, UniProt P29990); experiment: flavivirus cap methylation enzyme inhibition – biochemical, confirmation dose response, primary screen (AID 588689); type: functional
Chain of Genome polyprotein (P29990 2492-3391 limits assumed): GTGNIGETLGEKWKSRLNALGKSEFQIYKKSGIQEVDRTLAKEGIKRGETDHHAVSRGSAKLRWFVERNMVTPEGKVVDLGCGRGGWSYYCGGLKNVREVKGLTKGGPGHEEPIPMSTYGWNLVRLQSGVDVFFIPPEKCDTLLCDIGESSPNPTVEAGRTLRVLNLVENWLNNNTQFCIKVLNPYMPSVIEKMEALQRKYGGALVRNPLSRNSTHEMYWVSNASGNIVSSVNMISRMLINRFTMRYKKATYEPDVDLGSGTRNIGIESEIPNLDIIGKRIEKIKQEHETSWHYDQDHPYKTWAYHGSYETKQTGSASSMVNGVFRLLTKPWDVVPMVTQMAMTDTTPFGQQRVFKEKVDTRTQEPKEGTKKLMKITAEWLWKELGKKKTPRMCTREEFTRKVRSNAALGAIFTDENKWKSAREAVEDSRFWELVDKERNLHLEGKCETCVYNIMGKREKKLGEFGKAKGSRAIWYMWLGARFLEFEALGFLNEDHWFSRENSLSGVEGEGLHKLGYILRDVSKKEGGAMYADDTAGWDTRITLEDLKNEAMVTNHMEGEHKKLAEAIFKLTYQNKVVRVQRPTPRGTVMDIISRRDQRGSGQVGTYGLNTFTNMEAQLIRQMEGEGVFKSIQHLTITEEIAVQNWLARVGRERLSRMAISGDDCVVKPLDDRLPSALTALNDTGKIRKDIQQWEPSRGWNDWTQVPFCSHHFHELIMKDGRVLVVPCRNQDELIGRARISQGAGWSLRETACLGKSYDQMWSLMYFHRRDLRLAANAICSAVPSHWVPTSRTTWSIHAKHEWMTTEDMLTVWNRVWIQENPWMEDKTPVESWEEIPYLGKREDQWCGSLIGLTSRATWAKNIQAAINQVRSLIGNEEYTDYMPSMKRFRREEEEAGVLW

[6] = target: T1, Probable nicotinate-nucleotide adenylyltransferase; type: functional, Staphylococcus aureus subsp. aureus N315
[7] = target: T3, Carboxy-terminal domain RNA polymerase II polypeptide A small phosphatase 1 (Homo sapiens, UniProt Q9GZU7); experiment: CTDSP1 inhibitors, concentration-response, biochemical, absorbance readout, ultra-high-throughput screen actives (AID 540297); type: functional
T3 sequence (Q9GZU7 whole entry): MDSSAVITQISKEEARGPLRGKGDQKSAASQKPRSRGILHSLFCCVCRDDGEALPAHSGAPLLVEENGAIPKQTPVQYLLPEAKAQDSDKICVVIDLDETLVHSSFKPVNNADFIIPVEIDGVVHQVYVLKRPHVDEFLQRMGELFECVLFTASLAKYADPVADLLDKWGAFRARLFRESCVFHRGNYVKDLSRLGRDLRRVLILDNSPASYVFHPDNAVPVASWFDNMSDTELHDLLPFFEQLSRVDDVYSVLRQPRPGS

[8] = target: DNA dC->dU-editing enzyme APOBEC-3G (Homo sapiens, UniProt Q9HC16); type: functional;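 also: Dose-response counterscreen measuring inhibition of APOBEC3G DNA deaminase activity, run while confirming APOBEC3A inhibitors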
Chain of DNA dC->dU-editing enzyme APOBEC-3G (Q9HC16 whole entry): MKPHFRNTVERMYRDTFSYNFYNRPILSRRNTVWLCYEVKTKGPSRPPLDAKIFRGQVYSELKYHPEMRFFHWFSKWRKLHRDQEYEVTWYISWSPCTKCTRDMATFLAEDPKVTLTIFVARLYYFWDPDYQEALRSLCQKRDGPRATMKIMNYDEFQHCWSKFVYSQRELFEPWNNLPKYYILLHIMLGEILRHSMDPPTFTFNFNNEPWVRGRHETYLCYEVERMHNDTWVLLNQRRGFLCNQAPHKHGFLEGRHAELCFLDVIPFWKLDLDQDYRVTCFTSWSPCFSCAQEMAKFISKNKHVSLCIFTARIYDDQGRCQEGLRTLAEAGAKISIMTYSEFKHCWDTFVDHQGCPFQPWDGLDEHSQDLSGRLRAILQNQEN

[9] = target: DNA dC->dU-editing enzyme APOBEC-3A (Homo sapiens, UniProt P31941); experiment: Dose Response confirmation of small molecule APOBEC3A DNA Deaminase Inhibitors via a fluorescence-based single-stranded DNA deaminase assay. [Related pubchem assays (depositor defined):AID493011, AID493024]; type: functional
Chain of DNA dC->dU-editing enzyme APOBEC-3A (P31941 whole entry): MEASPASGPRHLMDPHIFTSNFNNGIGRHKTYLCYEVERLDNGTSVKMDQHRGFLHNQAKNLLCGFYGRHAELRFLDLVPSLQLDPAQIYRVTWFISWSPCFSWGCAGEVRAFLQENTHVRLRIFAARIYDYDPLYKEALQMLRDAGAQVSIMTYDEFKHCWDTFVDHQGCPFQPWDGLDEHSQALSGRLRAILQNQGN

CAAX prenyl protease 2 = CAAX prenyl protease 2 (Saccharomyces cerevisiae S288c, UniProt Q03530); type: biochemical
[10] = target: T4, Heat shock factor protein 1 (Mus musculus, UniProt P38532); experiment: decrease of HSF1-responsive luciferase luminescence – cell-based, NIH3T3, dose retest, confirmation (AID 2382); type: functional;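 also: NIH3T3 fibroblasts with HSF1-driven luciferase reporter stressed by proteasome inhibitor MG132; luminescence from HSF1-driven luciferase expression after 8 hours of MG132 stress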
T4 sequence (P38532 whole entry): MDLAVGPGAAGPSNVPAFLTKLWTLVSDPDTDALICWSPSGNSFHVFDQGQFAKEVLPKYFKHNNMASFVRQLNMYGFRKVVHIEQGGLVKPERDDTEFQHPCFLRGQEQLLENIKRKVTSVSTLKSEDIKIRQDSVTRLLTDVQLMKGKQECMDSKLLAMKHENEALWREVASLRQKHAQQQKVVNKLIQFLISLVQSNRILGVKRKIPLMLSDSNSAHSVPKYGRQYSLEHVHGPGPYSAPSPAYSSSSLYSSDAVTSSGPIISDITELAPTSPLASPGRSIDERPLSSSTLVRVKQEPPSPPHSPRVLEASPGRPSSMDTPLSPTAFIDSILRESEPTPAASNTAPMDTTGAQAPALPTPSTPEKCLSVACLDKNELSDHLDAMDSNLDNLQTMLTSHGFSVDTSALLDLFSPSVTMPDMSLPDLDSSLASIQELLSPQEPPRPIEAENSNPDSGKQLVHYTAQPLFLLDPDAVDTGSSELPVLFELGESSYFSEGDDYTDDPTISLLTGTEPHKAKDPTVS

cells = type: functional, cell-based
[11] = alpha-synuclein stem-loop translation blockers – luminescence, H4 neuroglioblastoma cells, dose confirmation, confirmation (AID 2454); type: functional, cell-based;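 also: H4 neuroglioblastoma cells carrying an alpha-synuclein 5'UTR luciferase reporter; potency for inhibition of the luciferase signal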
[12] = target: Luciferin 4-monooxygenase (Photinus pyralis, UniProt P08659); experiment: Counter Screen for Luciferase-based Assay Positives. [Related pubchem assays: 620, 618, 411 ]
[13] = luciferase reporter signal reduction – luminescence, H4-C neuroglioblastoma cells, dose response (AID 2458); type: functional, cell-based;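 also: H4 neuroglioblastoma cells stably carrying a luciferase reporter gene fusion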
[14] = luciferase reporter signal suppression in cells – H4 neuroglioma cells, luminescence, dose response (AID 1990); type: functional, cell-based
HT-1080 = experiment: HT1080 cell viability loss – fluorescence readout (AID 620); type: functional, cell-based; details: Homo sapiens
[15] = alpha-synuclein stem-loop luciferase translation blockers – H4 neuroglioma cells, luminescence, confirmation (AID 1988); type: functional, cell-based
[16] = Luminescence Cell-Based Dose Response HTS to Identify Inhibitors of 5'UTR Stem-Loop Driven Prion Protein mRNA Translation in H4 Neuroglioblastoma Cells. [Related pubchem assays: 1827 (Project Summary), 1813 (Primary HTS)]; type: functional
[17] = HEK-293T viability loss after treatment – luminescence, T-cell screen hits, cytotoxicity control for TCR NF-kB inhibitor project, dose response (AID 489026); type: functional, cell-based;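 also: cells exposed to compound about 14 hours before the viability readout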
[18] = target: DNA damage-inducible transcript 3 protein (Mus musculus, UniProt P35639); type: functional, Cricetulus griseus
Chain of DNA damage-inducible transcript 3 protein (P35639 whole entry): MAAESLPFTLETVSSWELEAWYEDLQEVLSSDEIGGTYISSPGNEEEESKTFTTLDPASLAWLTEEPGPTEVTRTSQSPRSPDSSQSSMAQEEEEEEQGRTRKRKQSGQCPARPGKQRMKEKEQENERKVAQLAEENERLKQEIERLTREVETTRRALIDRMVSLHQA

[19] = target: T5, Epstein-Barr nuclear antigen 1 (Epstein-Barr virus (strain B95-8) (HHV-4) (Human herpesvirus 4), UniProt P03211); experiment: inhibition of EBV nuclear antigen 1 DNA binding – biochemical, fluorescence polarization, 1536-well, dose response (AID 2381); design: species or system human gammaherpesvirus 4;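 also: fluorescence polarization of a Cy5 DNA probe bound by EBNA-1 protein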
T5 sequence (P03211 whole entry): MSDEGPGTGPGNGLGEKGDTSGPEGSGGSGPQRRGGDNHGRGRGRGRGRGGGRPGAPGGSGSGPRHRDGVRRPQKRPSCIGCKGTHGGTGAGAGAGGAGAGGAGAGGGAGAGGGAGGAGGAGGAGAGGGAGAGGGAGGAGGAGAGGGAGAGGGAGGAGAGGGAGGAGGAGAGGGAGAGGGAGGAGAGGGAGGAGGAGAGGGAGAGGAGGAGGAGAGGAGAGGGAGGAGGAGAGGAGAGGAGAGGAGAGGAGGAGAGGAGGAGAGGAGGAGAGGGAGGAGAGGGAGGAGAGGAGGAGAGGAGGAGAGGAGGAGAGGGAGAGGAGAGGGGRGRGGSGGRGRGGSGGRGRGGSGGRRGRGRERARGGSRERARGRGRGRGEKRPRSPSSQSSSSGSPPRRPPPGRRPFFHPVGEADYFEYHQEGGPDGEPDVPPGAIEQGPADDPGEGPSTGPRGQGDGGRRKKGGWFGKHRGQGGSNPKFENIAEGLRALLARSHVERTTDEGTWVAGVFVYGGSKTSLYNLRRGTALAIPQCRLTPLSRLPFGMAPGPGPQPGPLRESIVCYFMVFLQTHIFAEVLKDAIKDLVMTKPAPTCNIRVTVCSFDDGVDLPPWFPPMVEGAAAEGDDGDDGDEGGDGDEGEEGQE

Cytochrome P450 2C19 = Cytochrome P450 2C19 (Homo sapiens, UniProt P33261); experiment: Cytochrome panel assay with activity outcomes. Panel member name: p450-cyp2c19 Compounds with AC50 equal or less than 10 uM are considered active; type: functional; details: read-out: AC50
[20] = target: T6, Lytic switch protein BZLF1 (Epstein-Barr virus (strain B95-8) (HHV-4) (Human herpesvirus 4), UniProt P03206); experiment: inhibition of BZLF1 ZTA DNA binding – biochemical, fluorescence polarization, Epstein-Barr virus, 1536-well, counter-screen for EBNA-1 inhibitor project, dose response (AID 2377); design: species or system human gammaherpesvirus 4;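 also: fluorescence polarization of Cy5-labelled ZRE DNA probe bound by purified Zta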
T6 sequence (P03206 whole entry): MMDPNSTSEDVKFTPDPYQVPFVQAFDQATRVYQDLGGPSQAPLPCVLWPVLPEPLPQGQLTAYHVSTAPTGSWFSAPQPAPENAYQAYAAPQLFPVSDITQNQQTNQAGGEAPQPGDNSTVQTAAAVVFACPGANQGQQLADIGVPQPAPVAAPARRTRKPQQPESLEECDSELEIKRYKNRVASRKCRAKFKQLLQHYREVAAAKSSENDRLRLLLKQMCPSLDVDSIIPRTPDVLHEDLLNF

[21] = target: T7, Alkaline phosphatase, tissue-nonspecific isozyme (Homo sapiens, UniProt P05186); experiment: potency against alkaline phosphatase TNAP – biochemical, luminescent, dose response, SAR follow-up (AID 1056)
T7 sequence (P05186 whole entry): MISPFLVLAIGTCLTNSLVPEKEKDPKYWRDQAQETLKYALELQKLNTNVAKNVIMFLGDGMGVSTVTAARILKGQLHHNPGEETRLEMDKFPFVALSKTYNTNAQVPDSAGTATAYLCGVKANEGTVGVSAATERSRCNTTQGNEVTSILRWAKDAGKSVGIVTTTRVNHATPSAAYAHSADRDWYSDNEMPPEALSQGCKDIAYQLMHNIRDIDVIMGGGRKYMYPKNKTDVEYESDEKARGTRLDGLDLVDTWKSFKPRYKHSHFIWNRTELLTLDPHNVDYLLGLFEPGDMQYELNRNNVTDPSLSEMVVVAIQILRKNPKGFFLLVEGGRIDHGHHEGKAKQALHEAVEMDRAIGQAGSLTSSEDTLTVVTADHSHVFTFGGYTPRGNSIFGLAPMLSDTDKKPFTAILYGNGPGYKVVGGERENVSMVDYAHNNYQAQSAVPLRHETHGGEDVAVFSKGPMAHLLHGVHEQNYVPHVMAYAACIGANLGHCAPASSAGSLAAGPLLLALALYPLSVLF

[22] = target: Glyceraldehyde-3-phosphate dehydrogenase (Homo sapiens, UniProt P04406)
[23] = target: Alkaline phosphatase, placental type (Homo sapiens, UniProt P05187); experiment: human placental alkaline phosphatase inhibition – biochemical, luminescence, confirmation (AID 1512); type: functional
Chain of Alkaline phosphatase, placental type (P05187 whole entry): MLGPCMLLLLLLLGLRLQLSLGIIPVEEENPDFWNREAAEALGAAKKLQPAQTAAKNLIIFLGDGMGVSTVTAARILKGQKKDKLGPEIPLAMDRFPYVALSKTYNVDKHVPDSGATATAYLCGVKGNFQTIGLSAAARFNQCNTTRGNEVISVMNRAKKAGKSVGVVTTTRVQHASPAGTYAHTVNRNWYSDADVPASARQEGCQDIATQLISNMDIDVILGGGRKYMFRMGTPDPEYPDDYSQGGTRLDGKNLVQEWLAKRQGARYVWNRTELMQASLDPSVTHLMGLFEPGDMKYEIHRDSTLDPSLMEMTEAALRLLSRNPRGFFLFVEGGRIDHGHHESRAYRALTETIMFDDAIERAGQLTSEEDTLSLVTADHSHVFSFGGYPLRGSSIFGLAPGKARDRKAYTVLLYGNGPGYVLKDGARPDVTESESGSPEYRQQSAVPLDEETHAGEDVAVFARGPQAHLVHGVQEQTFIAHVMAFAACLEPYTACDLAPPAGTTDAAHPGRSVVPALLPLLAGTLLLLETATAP

Large T antigen = Large T antigen (Simian virus 40, UniProt P03070); type: functional, Betapolyomavirus macacae;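 also: Confirmatory-stage PubChem screen for compounds that inhibit SV40 T antigen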
Chain of Large T antigen (P03070 whole entry): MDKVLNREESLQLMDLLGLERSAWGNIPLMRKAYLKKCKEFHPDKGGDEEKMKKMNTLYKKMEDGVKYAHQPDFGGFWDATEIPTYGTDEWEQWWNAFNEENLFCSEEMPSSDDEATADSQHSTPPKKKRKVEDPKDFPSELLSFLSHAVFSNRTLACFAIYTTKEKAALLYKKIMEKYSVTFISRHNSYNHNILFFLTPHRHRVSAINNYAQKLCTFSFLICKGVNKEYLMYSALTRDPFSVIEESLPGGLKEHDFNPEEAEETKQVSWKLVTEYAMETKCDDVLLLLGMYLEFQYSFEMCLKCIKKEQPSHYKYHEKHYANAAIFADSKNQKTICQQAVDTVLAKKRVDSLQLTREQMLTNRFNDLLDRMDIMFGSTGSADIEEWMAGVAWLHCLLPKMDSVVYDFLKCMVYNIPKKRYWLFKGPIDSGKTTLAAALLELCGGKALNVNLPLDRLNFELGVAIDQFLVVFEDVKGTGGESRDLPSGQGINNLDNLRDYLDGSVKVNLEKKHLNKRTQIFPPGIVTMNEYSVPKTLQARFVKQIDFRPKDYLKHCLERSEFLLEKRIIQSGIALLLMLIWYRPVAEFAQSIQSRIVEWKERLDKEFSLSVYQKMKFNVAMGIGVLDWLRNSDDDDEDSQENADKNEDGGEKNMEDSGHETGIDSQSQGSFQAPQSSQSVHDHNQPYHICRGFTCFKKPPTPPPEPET

Chain of E3 ubiquitin-protein ligase Mdm2/Protein Mdm4 (Q00987 whole entry): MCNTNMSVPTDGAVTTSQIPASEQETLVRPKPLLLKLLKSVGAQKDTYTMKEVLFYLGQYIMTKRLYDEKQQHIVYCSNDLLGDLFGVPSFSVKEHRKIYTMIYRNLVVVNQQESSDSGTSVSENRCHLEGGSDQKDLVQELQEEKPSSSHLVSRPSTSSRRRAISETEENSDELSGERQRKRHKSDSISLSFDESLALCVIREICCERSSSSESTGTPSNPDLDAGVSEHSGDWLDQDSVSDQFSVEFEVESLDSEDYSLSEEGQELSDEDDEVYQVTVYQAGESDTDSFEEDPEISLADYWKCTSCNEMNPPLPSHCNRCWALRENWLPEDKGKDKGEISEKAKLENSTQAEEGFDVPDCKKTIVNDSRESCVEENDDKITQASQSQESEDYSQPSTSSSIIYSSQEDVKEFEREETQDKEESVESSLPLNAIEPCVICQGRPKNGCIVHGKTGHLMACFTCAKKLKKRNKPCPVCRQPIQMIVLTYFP
Chain of E3 ubiquitin-protein ligase Mdm2/Protein Mdm4 (O15151 whole entry): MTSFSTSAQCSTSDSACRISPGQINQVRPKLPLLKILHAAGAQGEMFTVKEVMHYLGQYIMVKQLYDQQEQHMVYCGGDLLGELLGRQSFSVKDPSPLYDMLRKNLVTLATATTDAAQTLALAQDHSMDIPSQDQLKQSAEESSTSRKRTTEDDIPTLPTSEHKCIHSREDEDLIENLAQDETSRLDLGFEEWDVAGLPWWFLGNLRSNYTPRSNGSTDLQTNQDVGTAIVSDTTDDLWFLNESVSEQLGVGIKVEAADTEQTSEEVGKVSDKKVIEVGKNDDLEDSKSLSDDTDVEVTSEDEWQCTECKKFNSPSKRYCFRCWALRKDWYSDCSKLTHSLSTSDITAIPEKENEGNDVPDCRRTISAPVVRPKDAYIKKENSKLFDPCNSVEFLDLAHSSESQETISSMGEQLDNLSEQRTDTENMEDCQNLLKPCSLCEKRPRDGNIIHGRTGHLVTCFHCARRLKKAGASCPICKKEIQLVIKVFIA

COc1ccc2c(c1)C1(Nc3ccccc3-c3nc4ccccc4n31)C(=O)N2C (stereo unspecified)
IC50 [1]: 2.85 µM (active)
EC50 [2]: > 20 µM (not active)
EC50 [3]: > 20 µM (not active)

CCc1nnc(NS(=O)(=O)c2ccc(NC(=S)NC(=O)/C=C/c3ccc(F)cc3)cc2)s1
IC50 [4]: 45.4 µM (active)
IC50 [5]: 18.3 µM (active)
IC50 (Aminopeptidase N): 76.7 µM (active)
IC50 (Genome polyprotein): 39.3 µM (active)
IC50 [6]: 4.58 µM (active)

O=C(O)CCN1C(=O)/C(=C2\C(=O)N(Cc3ccc(F)cc3)c3ccccc32)SC1=S
IC50 [5]: > 99 µM (inactive)
IC50 (Genome polyprotein): 41.2 µM (active)
IC50 [7]: 3.03 µM (active)

Cc1ccc(C(=O)Nc2cc(Cl)ccc2-n2cncn2)o1
IC50 [8]: 20.5 µM (active)
IC50 [9]: 85 µM (active)

C[C@@]12CCC=C[C@H]1[C@H](c1ccc(/C=C/c3ccccc3)cc1F)N(Cc1ccccc1)C2=O
AC50 (CAAX prenyl protease 2): 45.9 µM (active)

COCCn1c(C)cc(C2=NN=C(Nc3ccccc3F)SC2)c1C
EC50 [10]: < 0.16 µM (active)
IC50 [1]: 1.33 µM (active)
EC50 (cells): > 12 µM (not active)
EC50 [11]: 1.69 µM (active)
EC50 [12]: 2.67 µM (active)
EC50 [13]: 1.3 µM (active)
EC50 [14]: 8.18 µM (active)
EC50 (HT-1080): > 50 µM (not active)
EC50 [15]: < 0.1 µM (active)
EC50 [16]: < 0.1 µM (active)
IC50 [17]: > 80 µM (inactive)

COc1ccc(C)cc1NC(=O)CCCN1C(=O)NC(C)(C)C1=O
IC50 [8]: 11.9 µM (active)
IC50 [9]: 11 µM (active)

Cc1cccc(OCC(=O)N/N=C\C=C\c2ccc3c(c2)OCO3)c1C
Absolute IC50 (CHOP) [18]: 10 µM
IC50 [19]: 5.84 µM (active)
AC50 (Cytochrome P450 2C19): 10 µM (inconclusive)
IC50 [20]: > 111 µM (not active)

Cc1n[nH]c2c1C(=O)CC(C)(C)C2
IC50 [21]: 19.9 µM (active)
IC50 [22]: > 100 µM (not active)
IC50 [23]: > 100 µM (inactive)

COCc1cc(C)nc(SCC(=O)c2ccc(O)c(O)c2)c1C#N
IC50 (Large T antigen): 3.71 µM (active)
IC50 [23]: 2.16 µM (active)
